The record followed here is patent publication US10004701B2, “Methods and compositions for treating infection” (UNIVERSITY OF ROCHESTER, priority 2012, dated 2018).

Common to all, as to experiment: AK assay 384-well format, Prestwick library screening
The subject of one assay is P. aeruginosa. It counts as cell-based, Pseudomonas aeruginosa. As to conditions: for fold induction at 50 µM: Pseudomonas aeruginosa, 3 h.
The subject of the next assay is K. pneumoniae. It counts as cell-based, Klebsiella pneumoniae. As to conditions: for fold induction at 50 µM: Klebsiella pneumoniae, 3 h.
For assay [1], the system named is A. baumannii strain 98-37-09. It counts as cell-based, Acinetobacter baumannii. As to conditions: for fold induction at 50 µM: Acinetobacter baumannii, 983709, 3 h.
The test system of a further assay is E. cloacae. The format is cell-based, Enterobacter cloacae. The note with it: for fold induction at 50 µM: Enterobacter cloacae, 3 h.
A further assay concerns E. coli. The format is cell-based, Escherichia coli. The note with it: for fold induction at 50 µM: Escherichia coli, 3 h.
A further assay relates to E. faecium. It counts as cell-based, Enterococcus faecium. As to conditions: for fold induction at 50 µM: Enterococcus faecium, 3 h.
In assay [2] the test system is S. aureus strain USA300-0114. It counts as cell-based, Staphylococcus aureus. The note with it: for fold induction at 50 µM: Staphylococcus aureus, USA300, 3 h.
The mark [3] stands for this setting: 50 μM final drug concentration, planktonic, cutoff for positive-scoring molecules 3-fold increase, read-out: AK-based Prestwick Library Screening Results, P. aeruginosa (fold increase in extracellular AK activity).
Where [4] appears, read: 50 μM final drug concentration, planktonic, cutoff for positive-scoring molecules 3-fold increase, read-out: AK-based Prestwick Library Screening Results, K. pneumoniae (fold increase in extracellular AK activity).
Setting [5] is: 50 μM final drug concentration, planktonic, cutoff for positive-scoring molecules 3-fold increase, read-out: AK-based Prestwick Library Screening Results, A. baumannii (fold increase in extracellular AK activity).
The mark [6] stands for this setting: 50 μM final drug concentration, planktonic, cutoff for positive-scoring molecules 3-fold increase, read-out: AK-based Prestwick Library Screening Results, E. cloacae (fold increase in extracellular AK activity).
Setting [7] is: 50 μM final drug concentration, planktonic, cutoff for positive-scoring molecules 3-fold increase, read-out: AK-based Prestwick Library Screening Results, E. coli (fold increase in extracellular AK activity).
Where [8] appears, read: 50 μM final drug concentration, planktonic, cutoff for positive-scoring molecules 3-fold increase, read-out: AK-based Prestwick Library Screening Results, E. faecium (fold increase in extracellular AK activity).
The mark [9] stands for this setting: 50 μM final drug concentration, planktonic, cutoff for positive-scoring molecules 3-fold increase, read-out: AK-based Prestwick Library Screening Results, S. aureus (fold increase in extracellular AK activity).
Where [10] appears, read: 50 μM final drug concentration, […].

Read-outs that look alike come from different tables or passages of the source.

On to `COc1cc2c(c(OC)c1OC)-c1ccc(OC)c(=O)cc1[C@@H](NC(C)=O)CC2` [Colchicine], for which the fold induction at 50 µM in the assay on P. aeruginosa (read-out: AK-based Prestwick Library Screening Results, P. aeruginosa (increase in extracellular AK activity)) stood at 1; with K. pneumoniae (read-out: AK-based Prestwick Library Screening Results, K. pneumoniae (increase in extracellular AK activity)), 0.9; in assay [1] (read-out: AK-based Prestwick Library Screening Results, A. baumannii (increase in extracellular AK activity)), 1; in the assay with E. cloacae (read-out: AK-based Prestwick Library Screening Results, E. cloacae (increase in extracellular AK activity)), 1.1; in the assay with E. coli (read-out: AK-based Prestwick Library Screening Results, E. coli (increase in extracellular AK activity)), 1.2; with E. faecium (read-out: AK-based Prestwick Library Screening Results, E. faecium (increase in extracellular AK activity)), 1. The fold induction at 50 µM in assay [2] (read-out: AK-based Prestwick Library Screening Results, S. aureus (increase in extracellular AK activity)) was determined as 1.

Turning to `Nc1ccccc1S(N)(=O)=O` [Compound 2-Aminobenzenesulfonamide, 2-Aminobenzenesulfonamide], the fold induction at 50 µM in the assay on P. aeruginosa (setting [3]) came out at 0.9; in the assay with K. pneumoniae (setting [4]), 0.7; in assay [1] (setting [5]), 0.9; in the assay with E. cloacae (setting [6]), 1.4; in the assay with E. coli (setting [7]), 1.1; in the assay on E. faecium (setting [8]) it was 0.9. For the same compound, the fold induction at 50 µM in assay [2] (setting [9]) stood at 0.8.

On to `Clc1cnccn1` [Compound 2-Chloropyrazine, 2-Chloropyrazine], for which the fold induction at 50 µM in the assay with P. aeruginosa (planktonic P. aeruginosa, 50 μM final drug concentration, positive cutoff 3-fold increase, read-out: AK-based Prestwick library screening result, P. aeruginosa (fold increase in extracellular AK activity)) was 1; in the assay on K. pneumoniae (planktonic K. pneumoniae, 50 μM final drug concentration, positive cutoff 3-fold increase, read-out: AK-based Prestwick library screening result, K. pneumoniae (fold increase in extracellular AK activity)) it was 0.9; in assay [1] (planktonic A. baumannii, 50 μM final drug concentration, positive cutoff 3-fold increase, read-out: AK-based Prestwick library screening result, A. baumannii (fold increase in extracellular AK activity)), 1.2; in the assay with E. cloacae (planktonic E. cloacae, 50 μM final drug concentration, positive cutoff 3-fold increase, read-out: AK-based Prestwick library screening result, E. cloacae (fold increase in extracellular AK activity)), 1.4; in the assay on E. coli (planktonic E. coli, 50 μM final drug concentration, positive cutoff 3-fold increase, read-out: AK-based Prestwick library screening result, E. coli (fold increase in extracellular AK activity)), 1; with E. faecium (planktonic E. faecium, 50 μM final drug concentration, positive cutoff 3-fold increase, read-out: AK-based Prestwick library screening result, E. faecium (fold increase in extracellular AK activity)) it was 1.1. In addition, the fold induction at 50 µM in assay [2] (planktonic S. aureus, 50 μM final drug concentration, positive cutoff 3-fold increase, read-out: AK-based Prestwick library screening result, S. aureus (fold increase in extracellular AK activity)) was 1.1.

Consider `CC(=O)Nc1cc2ccccc2oc1=O` [Compound 3-Acetamidocoumarin, 3-Acetamidocoumarin], for which the fold induction at 50 µM is 0.4 in the assay with P. aeruginosa (50 μM final drug concentration, cutoff for positive-scoring molecules 3-fold increase, read-out: AK-based Prestwick Library Screening Results, P. aeruginosa (fold increase in extracellular AK activity)); 0.4 with K. pneumoniae (50 μM final drug concentration, cutoff for positive-scoring molecules 3-fold increase, read-out: AK-based Prestwick Library Screening Results, K. pneumoniae (fold increase in extracellular AK activity)); 0.4 in assay [1] (50 μM final drug concentration, cutoff for positive-scoring molecules 3-fold increase, read-out: AK-based Prestwick Library Screening Results, A. baumannii (fold increase in extracellular AK activity)); 0.4 with E. cloacae (50 μM final drug concentration, cutoff for positive-scoring molecules 3-fold increase, read-out: AK-based Prestwick Library Screening Results, E. cloacae (fold increase in extracellular AK activity)); 0.5 in the assay on E. coli (50 μM final drug concentration, cutoff for positive-scoring molecules 3-fold increase, read-out: AK-based Prestwick Library Screening Results, E. coli (fold increase in extracellular AK activity)); 0.8 in the assay with E. faecium (50 μM final drug concentration, cutoff for positive-scoring molecules 3-fold increase, read-out: AK-based Prestwick Library Screening Results, E. faecium (fold increase in extracellular AK activity)). The fold induction at 50 µM in assay [2] (50 μM final drug concentration, cutoff for positive-scoring molecules 3-fold increase, read-out: AK-based Prestwick Library Screening Results, S. aureus (fold increase in extracellular AK activity)) turned out to be 0.4.

For `CC(=O)c1cc2ccccc2oc1=O` [Compound 3-Acetylcoumarin, 3-Acetylcoumarin], the fold induction at 50 µM in the assay with P. aeruginosa (setting [3]) is 0.8; in the assay with K. pneumoniae (setting [4]), 0.6; in assay [1] (setting [5]), 0.8; with E. cloacae (setting [6]), 1.1; with E. coli (setting [7]) it was 0.7; in the assay on E. faecium (setting [8]), 0.9. Also, in assay [2] (setting [9]), the fold induction at 50 µM was 0.6.

Take `c1coc(CNc2ncnc3nc[nH]c23)c1` [Compound 6-Furfurylaminopurine, 6-Furfurylaminopurine]: the fold induction at 50 µM in the assay on P. aeruginosa (setting [3]) came to 0.7; with K. pneumoniae (setting [4]), 0.5; in assay [1] (setting [5]) it was 0.7; with E. cloacae (setting [6]), 0.9; with E. coli (setting [7]), 0.7; in the assay with E. faecium (setting [8]), 0.9. Further, the fold induction at 50 µM in assay [2] (setting [9]) stood at 0.6.

For the compound `CN1C2CC(=O)CC1C(O)C2` (stereo not drawn) [Compound 6-Hydroxytropinone], the “AK-based Prestwick Library Screening Results, P. aeruginosa (fold increase in extracellular AK activity)” value in the assay on P. aeruginosa (setting [10]) is on record as 0.4. The “AK-based Prestwick Library Screening Results, K. pneumoniae (fold increase in extracellular AK activity)” value in the assay with K. pneumoniae (setting [10]) is 0.5. In assay [1] (setting [10]), the “AK-based Prestwick Library Screening Results, A. baumannii (fold increase in extracellular AK activity)” value was 0.5. For the same compound, the “AK-based Prestwick Library Screening Results, E. cloacae (fold increase in extracellular AK activity)” value in the assay with E. cloacae (setting [10]) is listed as 0.4. Also, the “AK-based Prestwick Library Screening Results, E. coli (fold increase in extracellular AK activity)” value in the assay on E. coli (setting [10]) stood at 0.5. Moreover, the “AK-based Prestwick Library Screening Results, E. faecium (fold increase in extracellular AK activity)” value with E. faecium (setting [10]) was 0.9. Further, in assay [2] (setting [10]), the “AK-based Prestwick Library Screening Results, S. aureus (fold increase in extracellular AK activity)” value turned out to be 0.4.

With `CNc1ncnc2c1ncn2[C@@H]1O[C@H](CO)[C@@H](O)[C@H]1O` [Compound N6-methyladenosine, N6-methyladenosine], the fold induction at 50 µM was determined as 0.6 in the assay with P. aeruginosa (planktonic P. aeruginosa, 50 μM final drug concentration, cutoff for positive-scoring molecules 3-fold increase, read-out: AK-based Prestwick Library Screening Results, P. aeruginosa (increase in extracellular AK activity)); 0.5 in the assay on K. pneumoniae (planktonic K. pneumoniae, 50 μM final drug concentration, cutoff for positive-scoring molecules 3-fold increase, read-out: AK-based Prestwick Library Screening Results, K. pneumoniae (increase in extracellular AK activity)); 0.6 in assay [1] (planktonic A. baumannii, 50 μM final drug concentration, cutoff for positive-scoring molecules 3-fold increase, read-out: AK-based Prestwick Library Screening Results, A. baumannii (increase in extracellular AK activity)); 0.7 in the assay with E. cloacae (planktonic E. cloacae, 50 μM final drug concentration, cutoff for positive-scoring molecules 3-fold increase, read-out: AK-based Prestwick Library Screening Results, E. cloacae (increase in extracellular AK activity)); 0.6 in the assay with E. coli (planktonic E. coli, 50 μM final drug concentration, cutoff for positive-scoring molecules 3-fold increase, read-out: AK-based Prestwick Library Screening Results, E. coli (increase in extracellular AK activity)); 0.9 with E. faecium (planktonic E. faecium, 50 μM final drug concentration, cutoff for positive-scoring molecules 3-fold increase, read-out: AK-based Prestwick Library Screening Results, E. faecium (increase in extracellular AK activity)). Also, the fold induction at 50 µM in assay [2] (planktonic S. aureus, 50 μM final drug concentration, cutoff for positive-scoring molecules 3-fold increase, read-out: AK-based Prestwick Library Screening Results, S. aureus (increase in extracellular AK activity)) stood at 0.5.

With `CCN1C[C@]2(COC)CC[C@H](O)[C@@]34C5C[C@@H]6[C@@H](OC)C[C@](O)(C(CC23)C14)C5[C@H]6OC(C)=O` (stereo partly drawn) [Condelphine], the fold induction at 50 µM in the assay with P. aeruginosa (planktonic P. aeruginosa, 50 μM final drug concentration, […], read-out: AK-based Prestwick library screening result, P. aeruginosa (fold increase in extracellular AK activity)) was determined as 1; with K. pneumoniae (planktonic K. pneumoniae, 50 μM final drug concentration, […], read-out: AK-based Prestwick library screening result, K. pneumoniae (fold increase in extracellular AK activity)), 1; in assay [1] (planktonic A. baumannii, 50 μM final drug concentration, […], read-out: AK-based Prestwick library screening result, A. baumannii (fold increase in extracellular AK activity)), 1.1; in the assay with E. cloacae (planktonic E. cloacae, 50 μM final drug concentration, […], read-out: AK-based Prestwick library screening result, E. cloacae (fold increase in extracellular AK activity)) it was 1.2; in the assay on E. coli (planktonic E. coli, 50 μM final drug concentration, […], read-out: AK-based Prestwick library screening result, E. coli (fold increase in extracellular AK activity)), 1.1; in the assay with E. faecium (planktonic E. faecium, 50 μM final drug concentration, […], read-out: AK-based Prestwick library screening result, E. faecium (fold increase in extracellular AK activity)) it was 1.1. Moreover, in assay [2] (planktonic S. aureus, 50 μM final drug concentration, […], read-out: AK-based Prestwick library screening result, S. aureus (fold increase in extracellular AK activity)), the fold induction at 50 µM came to 1.1.
